Assay results taken from ChEMBL document CHEMBL3046764, “Heterocyclic ortho-quinones, a novel type of Photosystem II inhibitors” (Biochim Biophys Acta, 2001).
The source made the active and inactive calls. No cut-off for these calls is given here.

Molecular target: Photosystem II protein D1 (Chlamydomonas reinhardtii) (UniProt P07753)
Assay: Non-competitive displacement of [14C]atrazine from Chlamydomonas reinhardtii photosystem II protein D1 assessed as DCIP-reduction by double-reciprocal plot

CCCCCCCC1=C(Br)c2nc3ccccn3c2C(=O)C1=O
Activity: Active
